Experimental findings from patent US6911469B2, “Sulfonamide compounds and pharmaceutical use thereof” (Fujisawa Pharmaceutical Co., Ltd., priority 1997, dated 2005) are described below.

For the compound `Cc1cc(C(=O)NS(=O)(=O)c2ccc(Cl)s2)nc2c1nc(C)n2Cc1ccc(Br)cc1Cl` [Example 106-3, 3-(4-bromo-2-chlorobenzyl)-5-[(5-chlorothiophen-2-yl)sulfonylcarbamoyl]-2,7-dimethyl-3H-imidazo[4,5-b]pyridine], the melting point was 214 to 215 °C. The compound `Cc1cc(C(=O)NS(=O)(=O)c2ccc(Cl)s2)nc2c1nc(C)n2Cc1ccc2ccccc2c1Br` [Example 104-6, 3-(1-bromonaphthalen-2-ylmethyl)-2,7-dimethyl-5-((5-chlorothiophen-2-yl)sulfonylcarbamoyl)-3H-imidazo[4,5-b]pyridine] had a melting point of 213 to 214 °C. To `Cc1nc2ccc(C(=O)NS(=O)(=O)c3ccc(Br)s3)nc2n1Cc1ccc(C(F)(F)F)cc1Cl` [Example 109-4, 5-((5-bromothiophen-2-yl)sulfonylcarbamoyl)-3-(2-chloro-4-(trifluoromethyl)benzyl)-2-methyl-3H-imidazo[4,5-b]pyridine] belongs 172 to 173 °C; to `CCCCCS(=O)(=O)NC(=O)c1cc(C)c2nc(C)n(Cc3ccc(Br)cc3Cl)c2n1` [Example 105, 3-(4-bromo-2-chlorobenzyl)-2,7-dimethyl-5-(pentanesulfonylcarbamoyl)-3H-imidazo[4,5-b]pyridine], 148 to 149 °C. The compound `CCCCCS(=O)(=O)NC(=O)c1ccc2sc(C)c(Cc3cc(Cl)ccc3Cl)c2c1` [Example 3, 3-(2,5-dichlorobenzyl)-2-methyl-5-(n-pentanesulfonylcarbamoyl)benzo[b]thiophene] came in with a melting point of 147 to 148 °C. In the case of `CCCCCS(=O)(=O)NC(=O)c1ccc2nc(C)n(Cc3ccc(C(F)(F)F)cc3Cl)c2n1` [Example 102-2, 3-[2-chloro-4-(trifluoromethyl)-benzyl]-2-methyl-5-(1-pentanesulfonylcarbamoyl)-3H-imidazo[4,5-b]pyridine], the melting point lay within 154 to 155 °C. Consider `CCCCCc1ccc(Cn2c(C)nc3ccc(C(=O)NS(=O)(=O)c4ccccc4)nc32)c(Cl)c1` [Example 73, 5-(benzenesulfonylcarbamoyl)-3-(2-chloro-4-(n-pentyl)benzyl)-2-methyl-3H-imidazo[4,5-b]pyridine], for which the melting point lay in the range of 174 to 175 °C. As for `CCCCS(=O)(=O)NC(=O)c1ccc2c(c1)CN(Cc1ccc(Cl)cc1Cl)C(C)=N2.Cl`, the figure is 258 °C (dec.); as for `Cc1nc2ccc(C(=O)NS(=O)(=O)c3ccccc3)nc2n1Cc1ccc(CO)cc1Cl` [Example 115, 5-(Benzenesulfonylcarbamoyl)-3-(2-chloro-4-(hydroxymethyl)benzyl)-2-methyl-3H-imidazo[4,5-b]pyridine], 198 to 199 °C.

`CSc1ccc(Cn2c(C)nc3ccc(C(=O)NS(=O)(=O)c4ccc(Cl)s4)nc32)c(Cl)c1` [Example 149, 3-(2-chloro-4-(methylthio)benzyl)-5-[(5-chlorothiophen-2-yl)sulfonylcarbamoyl]-2-methyl-3H-imidazo[4,5-b]pyridine] had a melting point of 170 to 171 °C. `CCCCCS(=O)(=O)NC(=O)c1ccc2nc(C)n(Cc3ccc(-c4ccccc4)cc3)c2n1` [Example 11, 2-methyl-5-(n-pentanesulfonyl-carbamoyl)-3-(4-phenylbenzyl)-3H-imidazo[4,5-b]pyridine] displayed a melting point of 170 to 171 °C.

`CCCCCS(=O)(=O)NC(=O)c1ccc2nc(C)n(Cc3ccc(Cl)cc3Cl)c2n1` [Example 8-1, 3-(2,4-dichlorobenzyl)-2-methyl-5-(n-pentanesulfonylcarbamoyl)-3H-imidazo[4,5-b]pyridine] registered a melting point of 174 to 175 °C. Take `Cc1nc2ccc(C(=O)NS(=O)(=O)c3ccccc3)nc2n1Cc1ccc(CC(C)C)cc1Cl` [Example 74, 5-(benzenesulfonylcarbamoyl)-3-(2-chloro-4-isobutylbenzyl)-2-methyl-3H-imidazo[4,5-b]pyridine]: the melting point lay within 183 to 184 °C. The compound `Cc1cc(C(=O)NS(=O)(=O)c2ccccc2)nc2c1nc(C)n2Cc1ccc(Br)cc1Cl` [Example 121, 5-(Benzenesulfonylcarbamoyl)-3-(4-bromo-2-chlorobenzyl)-2,7-dimethyl-3H-imidazo[4,5-b]pyridine] registered a melting point of 231 to 232 °C. As for `CCc1ccc(Cn2c(C)nc3ccc(C(=O)NS(=O)(=O)c4ccccc4)nc32)c(Cl)c1` [Example 70-2, 5-(benzenesulfonylcarbamoyl)-3-(2-chloro-4-ethylbenzyl)-2-methyl-3H-imidazo[4,5-b]pyridine], the figure is 167 to 168 °C.

On to `Cc1nc2ccc(C(=O)NS(=O)(=O)c3ccccc3)nc2n1Cc1ccc(CC2CCCCC2)cc1Cl` [Example 75, 5-(benzenesulfonylcarbamoyl)-3-(2-chloro-4-(cyclohexylmethyl)benzyl)-2-methyl-3H-imidazo[4,5-b]pyridine], for which the melting point was 170 to 171 °C. Take `CSc1ccc(Cn2c(C)nc3ccc(C(=O)NS(=O)(=O)c4ccc(Br)s4)nc32)c(Cl)c1` [Example 150, 3-[2-chloro-4-(methylthio)benzyl]-5-[(5-bromothiophen-2-yl)sulfonylcarbamoyl]-2-methyl-3H-imidazo[4,5-b]pyridine]: the melting point was 169 to 170 °C. Compound `CCCCCS(=O)(=O)NC(=O)c1cnc2nc(C)n(Cc3ccc(Cl)cc3Cl)c2c1` [Example 25, 1-(2,4-dichlorobenzyl)-2-methyl-6-(n-pentanesulfonylcarbamoyl)-1H-imidazo[4,5-b]pyridine] showed a melting point of 103 to 106 °C. The compound `CCCCS(=O)(=O)NC(=O)c1ccc2c(c1)n(Cc1ccc(Cl)cc1Cl)c(=O)n2C` [Example 39, 6-(1-n-butanesulfonylcarbamoyl)-1-(2,4-dichlorobenzyl)-3-methyl-2-benzimidazolone] had a melting point of 358 to 360 °C. With `CCCCCS(=O)(=O)NC(=O)c1cc(C)c2nc(C)n(Cc3ccc(-c4cccs4)cc3Cl)c2n1` [Example 188, 3-[2-chloro-4-(thiophen-2-yl)benzyl]-2,7-dimethyl-5-(1-pentanesulfonylcarbamoyl)-3H-imidazo[4,5-b]pyridine], the melting point is 220 to 224 °C. As for `CCCCS(=O)(=O)NC(=O)c1ccc2c(=O)n(Cc3ccc(Cl)cc3Cl)c(=O)n(C)c2c1` [Example 43, 7-(1-n-butanesulfonyl-carbamoyl)-3-(2,4-dichlorobenzyl)-1-methyl-2,4(1H,3H)-quinazolinedione], the figure is 212 to 214 °C. Turning to `Cc1cc(C(=O)NS(=O)(=O)c2ccc(Cl)s2)nc2c1nc(C)n2Cc1ccc(-c2ccccc2)cc1Cl` [Example 185, 3-(2-chloro-4-phenylbenzyl)-5-[(5-chlorothiophen-2-yl)sulfonylcarbamoyl]-2,7-dimethyl-3H-imidazo[4,5-b]pyridine], the melting point fell in the range of 241 to 242 °C. `CCCCCS(=O)(=O)NC(=O)c1ccc2sc(C)c(Cc3ccc(Cl)c(Cl)c3)c2c1` [Example 1, 3-(3,4-dichlorobenzyl)-2-methyl-5-(n-pentanesulfonyl-carbamoyl)benzo[b]thiophene] had a melting point of 159 to 160 °C. As for `CCOC(=O)c1ccc(Cn2c(C)nc3ccc(C(=O)NS(=O)(=O)c4ccccc4)nc32)c(Cl)c1` [Example 119, 5-(benzenesulfonylcarbamoyl)-3-(2-chloro-4-(ethoxycarbonyl)benzyl)-2-methyl-3H-imidazo[4,5-b]pyridine], the melting point fell in the range of 196 to 197 °C. For `Cc1nc2ccc(C(=O)NS(=O)(=O)c3ccc(Cl)s3)nc2n1Cc1ccc(C(F)(F)F)cc1Cl` [Example 109-3, 3-(2-chloro-4-(trifluoromethyl)-benzyl)-5-((5-chlorothiophen-2-yl)sulfonylcarbamoyl)-2-methyl-3H-imidazo[4,5-b]pyridine], the melting point was in the range of 170 to 171 °C. `Cc1cc(C(=O)NS(=O)(=O)c2ccc(Br)s2)nc2c1nc(C)n2Cc1ccc2ccccc2c1Br` [Example 112, 3-(1-bromonaphthalen-2-ylmethyl)-5-((5-bromothiophene-2-yl)sulfonylcarbamoyl)-2,7-dimethyl-3H-imidazo[4,5-b]pyridine]: the melting point lay in the range of 247 to 248 °C. In turn, `Cc1cc(C(=O)NS(=O)(=O)c2ccccc2)c2oc(Cc3ccc(Cl)cc3Cl)c(C)c2c1` [Example 31-2, 7-(benzenesulfonylcarbamoyl)-2-(2,4-dichlorobenzyl)-3,5-dimethylbenzo[b]furan] returned a melting point of 214 to 215 °C.

With `CSc1ccc(Cn2c(C)nc3ccc(C(=O)NS(=O)(=O)/C=C/c4ccccc4)nc32)c(Cl)c1` [Example 148, 3-(2-chloro-4-(methylthio)benzyl)-2-methyl-5-(E)-[(2-phenylethenyl)sulfonylcarbamoyl]-3H-imidazo[4,5-b]pyridine], the melting point fell in the range of 175 to 176 °C. To `CCCCCS(=O)(=O)NC(=O)c1cc(C)cc2c(C)c(Cc3ccc(Cl)cc3Cl)oc12` [Example 31-1, 2-(2,4-dichlorobenzyl)-3,5-dimethyl-7-(1-n-pentanesulfonylcarbamoyl)benzo[b]furan] belongs 164 to 165.5 °C; to `CCCCS(=O)(=O)NC(=O)c1ccc2nc(C)c(=O)n(Cc3ccc(Cl)cc3Cl)c2c1` [Example 49, 7-(1-n-butanesulfonyl-carbamoyl)-1-(2,4-dichlorobenzyl)-3-methyl-2(1H)-quinoxalinone], 223 to 225 °C; to `CCCCCS(=O)(=O)NC(=O)c1ccc2nc(C)n(Cc3ccc(-c4ccccc4)cc3Cl)c2n1` [Example 9, 3-(2-chloro-4-phenylbenzyl)-2-methyl-5-(n-pentanesulfonylcarbamoyl)-3H-imidazo[4,5-b]pyridine], 155 to 156 °C. Compound `CCCCCS(=O)(=O)NC(=O)c1ccc2nc(C)n(Cc3ccc(SC)cc3Cl)c2n1` [Example 151, 3-(2-chloro-4-(methylthio)benzyl)-2-methyl-5-(1-pentanesulfonylcarbamoyl)-3H-imidazo[4,5-b]pyridine] had a melting point of 184 to 185 °C. In turn, `CCCCCS(=O)(=O)NC(=O)c1ccc2nc(C)n(Cc3ccc(Cl)cc3Br)c2n1` [Example 13-1, 3-(2-bromo-4-chlorobenzyl)-2-methyl-5-(n-pentanesulfonylcarbamoyl)-3H-imidazo[4,5-b]pyridine] yielded a melting point of 167 to 168 °C.
